Data on 68 compounds can be found in PubChem BioAssay AID179 (DTP/NCI, 2004).

“And” between values parts separate entries of the source, which are not always exact repeats. Equal entries are not always repeated. The source made the active and inactive calls.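 The calls were made as follows: active = compounds giving half or more protection of infected cells from virus-caused growth loss, again on retest; inactive = the rest.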

The test system of the assay is CEM cells HIV-1 protection, formazan growth assay. Kind of assay: NCI AIDS Antiviral Assay. To be noted: for IC50: measured here: growth of uninfected CEM cells. The method, boiled down: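 Five concentrations of each compound were applied to infected and uninfected human CEM cells. Protection from HIV-1 was judged from growth measured with a soluble formazan assay.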

Regarding `OC(=Nc1cc(C(O)=Nc2cc(C(O)=Nc3cc(C(O)=Nc4ccc(C5=NCCN5)cc4)cc(C4=NCCN4)c3)cc(C3=NCCN3)c2)cc(C2=NCCN2)c1)c1ccc(C(O)=Nc2cc(C(O)=Nc3cc(C(O)=Nc4cc(C(O)=Nc5ccc(C6=NCCN6)cc5)cc(C5=NCCN5)c4)cc(C4=NCCN4)c3)cc(C3=NCCN3)c2)cc1`, the EC50 (usually the concentration giving half of the maximal effect) is 14.5 µM and the IC50 – broadly, the concentration at which inhibition is half-maximal – was greater than 100 µM.
For `Oc1ccccc1CNCc1nc2ccccc2[nH]1`, in that order: greater than 200 µM and 74.1 µM.
With `Cc1ccc(S(=O)(=O)c2[nH]cc(-c3c[nH]c(S(=O)(=O)c4ccc(C)cc4)c3C3CCCCC3)c2C2CCCCC2)cc1`, the outcome was inactive.
Take `COP(=O)(OC)C(=O)N1N(c2ccc([N+](=O)[O-])cc2)C(=O)C(C)NC1(NNc1ccc([N+](=O)[O-])cc1)P(=O)(OC)OC` (stereo unspecified): the EC50 is greater than 107 µM and the IC50 worked out at 56.2 µM.
For `C/C=C1\CN(C)C[C@H]2Cc3c(n(OC)c4ccccc34)C(=O)C[C@@H]12`, in that order: greater than 24 µM and greater than 24 µM.
Regarding `C[C@@H]1S[C@H](c2c(F)cccc2Cl)n2c1nc1ccccc12`, the EC50 was 3.55 µM and the IC50 was determined as 12.9 µM.
Consider `COC(=O)C1Cc2c([nH]c3ccccc23)-c2[nH]c3ccccc3c2CC(NC(C)=O)C(=O)NCC(=O)N1` (stereo unspecified), for which the EC50 is greater than 200 µM and the IC50 is greater than 200 µM.
On to `CCOC(=O)c1c(-c2ccc(O)c(OC)c2)c(C#N)c(=S)n(C2OC(CO)C(O)C(O)C2O)c1-c1ccccc1` (stereo unspecified), for which the EC50 is greater than 200 µM; the half-maximal inhibitory concentration (IC50) is > 200 µM and 117 µM.
As to `O=C1CSC2=NC3=C(COC/C3=C\c3ccc(F)cc3)C(c3ccc(F)cc3)N12` (stereo unspecified), the result was inactive.
For `O=C(/C(=C/c1cccs1)c1ccccc1)c1ccccc1`, the EC50 was greater than 200 µM and the IC50 is greater than 200 µM.
On to `CC(C)(C)C(=O)/C=C/c1cccc(Oc2ccccc2)c1`, for which the EC50 was greater than 18.6 µM and the IC50 is greater than 18.6 µM.
On to `O=C1OC2(C(F)(F)F)Oc3ccccc3CN2C12CCCCC2` (stereo unspecified), for which the EC50 was greater than 200 µM and the IC50 stood at 115 µM.
The matching figures for `COC1OC(C(=O)O)C2OC(C)(C)OC12` (stereo unspecified): greater than 200 µM and greater than 200 µM.
For the compound `CC1(C)C2CC[C@]3(C)C(C(=O)C=C4[C@@H]5C[C@@](C)(C(=O)O)CC[C@]5(C)CCC43C)[C@@]2(C)CC[C@@H]1OC1OC(C(=O)O)C(O)C(O)C1OC1OC(C(=O)O)C(O)C(O)C1O` (stereo partly specified) (tested in a mixture with another compound), the result was inactive.
With `CCCCCOB(OCCCCC)OCCCCC`, the outcome was inactive.
Take `C/C(=N/NC(=O)c1ccncc1)C(F)(F)F`: the result was inactive.
For the compound `O=C(CC(=O)N(C(=O)c1ccccc1)c1ccc(Cl)cc1)N/N=C\c1cc(N=Nc2ccccc2Cl)ccc1O`, the EC50 was greater than 100 µM and the IC50 is greater than 100 µM.
On to `O=C(O)CC/C(=N\Nc1nsc2ccccc12)c1ccccc1`, for which the EC50 is greater than 11.5 µM and the IC50 was 8.13 µM.
The matching figures for `O=c1c(-c2ccccc2)c2oc(c1-c1ccccc1)CS(=O)(=O)CCC2`: greater than 97.7 µM and 18.6 µM.
In the case of `COc1cc(C2c3cc4c(cc3OC(N3CCOCC3)C2C)OCO4)cc(OC)c1OC(C)=O` (stereo unspecified), the EC50 was greater than 200 µM and the IC50 came to 3.31 µM.
The matching figures for `CNC1=CC(=O)C2=C(C1=O)[C@H]1CC[C@]3(C)C(=O)CC[C@H]3[C@@H]1CC2`: greater than 200 µM and 30.2 µM.
For `Cc1cccc(CC(Cc2ccc(C)cc2C(=O)O)C(=O)O)c1` (stereo unspecified), in that order: greater than 200 µM and greater than 200 µM.
The matching figures for `N#C/C(=C\c1ccc(F)cc1)C(=O)O`: greater than 263 µM and greater than 263 µM.
For the compound `CN(C)C(=S)N1C(=S)N(c2ccccc2)C(=Nc2ccccc2)C1=Nc1ccccc1`, the EC50 is greater than 200 µM and the IC50 amounted to 170 µM.
For `CCOC(=O)[C@@H]1ON2O[C@H](OC3CCCCC3c3ccccc3)C[C@H]3OC(=O)[C@@H]1C32` (stereo partly specified), in that order: greater than 200 µM and 117 µM.
The matching figures for `COC(C[C@H]1CCCC[C@]1(O)/C(=C\CO[Si](C(C)C)(C(C)C)C(C)C)Sc1ccccc1)OC`: greater than 200 µM and 72.4 µM.
Turning to `CC(=O)c1c2c(cc3c1CCC3)CCC2`, the EC50 is greater than 200 µM and the IC50 was greater than 200 µM.
With `COc1cc(OC)c2nc3ccccc3c(NCCC[N+](C)(C)[O-])c2c1[N+](=O)[O-]`, the EC50 was greater than 200 µM and the IC50 turned out to be 132 µM.
`CCCC[n+]1ccn(-c2nc3ccccc3n2C)c1`: the outcome was inactive.
Take `O=c1c2ccccc2c(=O)n2n1C1CCC2C1`: the EC50 was greater than 1100 µM and the half-maximal inhibitory concentration (IC50) is greater than 1100 µM.
With `CC1=Nc2cc(C(=O)c3ccccc3)ccc2N=C(c2c(O)c3c(ccc4ccccc43)oc2=O)C1`, the EC50 was greater than 20 µM and the IC50 is greater than 20 µM.
For `O=C(O)CC1NC(/C(=C/c2ccccc2)NC(=O)c2ccccc2)OC1=O` (stereo unspecified), the EC50 is greater than 200 µM and the 50% inhibitory concentration (IC50) stood at 9.12 µM.
As for `CC1=C/C(=C(/c2ccccc2S(=O)(=O)O)c2cc(C)c(O)c(CN(CC(=O)O)CC(=O)O)c2C)C(C)=C(CN(CC(=O)O)CC(=O)O)C1=O`, the outcome was inactive.
For the compound `O=C1OC2C(O)COC23OC(O)CCC13O` (stereo unspecified), the EC50 was greater than 200 µM and the half-maximal inhibitory concentration (IC50) was greater than 200 µM.
As to `Cc1cccc2c1c(=O)c1c(O)c3c(cc1n2C)OC(C)(C)C=C3`, the EC50 was greater than 200 µM and the IC50 was 87.1 µM.
On to `CCOC(CNCCC(=O)OC)OCC`, for which the result was inactive.
As for `COc1ccc(/C=C(/C(=O)c2ccc(Cl)cc2)N2C=CC=CC2=C(C#N)C#N)cc1OC`, the EC50 was greater than 20 µM and the IC50 was 0.117 µM.
As to `CC1CC2C3CC(F)C4=CC(=O)C=CC4(C)C3(F)C(O)CC2(C)C1(O)C(=O)CO` (stereo unspecified), the outcome was inactive.
Consider `OC[C@@H]1C(O)[C@H](O)[C@H]2C(O)CCN12` (stereo partly specified), for which the EC50 is greater than 1320 µM and the IC50 is greater than 1320 µM.
In the case of `CO/C(N)=C(\C#N)N=Cc1cccs1`, the EC50 was greater than 200 µM and the IC50 was 117 µM.
For `CC1=C/C(=N\N(C)C)C(C(O)(C(F)(F)F)C(F)(F)F)C(C)(C)C1` (stereo unspecified), in that order: greater than 200 µM and 102 µM.
For `O=C(OCCc1ccccc1)c1cc2ccc(O)c(O)c2cn1`, in that order: greater than 8.32 µM and greater than 8.32 µM.
For `COc1ccc(OC)c2c1ccc1c(C)c3ccccc3c(C)c12`, in that order: greater than 200 µM and 35.5 µM.
For the compound `O=C(N/C(=C\c1ccc2c(c1)OCO2)c1nc2ccccc2[nH]1)c1ccccc1`, the EC50 was greater than 26.3 µM and the IC50 is greater than 26.3 µM.
For the compound `Cn1c(=O)cc(CC#N)c2ccccc21`, the EC50 was greater than 200 µM and the concentration for half-maximal inhibition (IC50) was greater than 200 µM.
As for `Nc1nc2c(ncn2CC2OC(CO)C(CO)O2)c(=O)[nH]1` (stereo unspecified), the EC50 is greater than 115 µM and the IC50 was greater than 115 µM.
On to `O=C(NC(CO)Cc1ccc(Oc2cc(CC(CO)NC(=O)OCc3ccccc3)ccc2OC(=O)OCc2ccccc2)cc1)OCc1ccccc1` (stereo unspecified), for which the EC50 was greater than 200 µM and the IC50 is 20.9 µM.
For `CCCC(=O)NC1CCc2cc(OC)c(OC)c(OC)c2-c2ccc(OC)c(=O)cc21` (stereo unspecified), in that order: greater than 2 µM and 0.0126 µM.
For `O=S(=O)(OC=C1CCCCC1)C(F)(F)F`, in that order: greater than 107 µM and greater than 107 µM.
The matching figures for `Cc1ccc(NC(=O)CC(=O)N2N=C(N(CCC#N)c3cccc(C)c3)CC2c2ccccc2)cc1` (stereo unspecified): greater than 75.9 µM and greater than 75.9 µM.
`Cn1c2ccccc2c(=S)c2c(O)cc3c(c21)C=CC(C)(C)O3`: the EC50 is greater than 200 µM and the IC50 is greater than 200 µM.
`O=C(O)CC(NC(=O)/C(=C/c1ccccc1O)NC(=O)c1ccccc1)C(=O)O` (stereo unspecified): the EC50 is greater than 200 µM and the IC50 was found to be 110 µM.
With `CCCCCCCCCCCCSSC(=S)OC(C)C`, the EC50 was greater than 200 µM and the IC50 is greater than 200 µM.
Turning to `NC1=C(O)/C(=N/NS(=O)(=O)c2ccccc2)C(c2cccc(Cl)c2)O1` (stereo unspecified), the EC50 is greater than 661 µM and the IC50 was 32.4 µM.
As to `COCC1OC(N2C(=O)NC(=O)[C@@H]3C=C4CCCCC4=C[C@@H]32)C(OC)C1OC` (stereo partly specified), the EC50 was greater than 200 µM and the half-inhibitory concentration (IC50) was determined as 105 µM.
The matching figures for `O=C1CSC(c2ccccc2O)N1c1ccc(-c2ccc(-n3c(-c4ccccc4)nc4ccccc4c3=O)cc2)cc1` (stereo unspecified): greater than 200 µM and 12 µM.
`N#CC(C#N)=CN1C(=O)CNC1=S`: the EC50 is greater than 200 µM and the IC50 is greater than 200 µM.
In the case of `O=S(=O)(O)C(=Nc1cccc(Cc2ccccc2)c1)Nc1cccc(Cc2ccccc2)c1`, the EC50 is greater than 200 µM and the IC50 is 14.8 µM.
For `CCCCCC#COC1CC(C)CC[C@@H]1C(C)C` (stereo partly specified), in that order: greater than 200 µM and 110 µM.
For `CCCCCC/C=[N+](/[O-])CC1OC(n2ccc(=O)[nH]c2=O)C(O[Si](C)(C)C(C)(C)C)C1O[Si](C)(C)C(C)(C)C` (stereo unspecified), in that order: greater than 200 µM and 6.76 µM.
The matching figures for `CCOC(=O)C(=Cc1ccccc1F)C(=O)OCC`: greater than 135 µM and 25.7 µM.
As to `O=C(C=Nc1ccccc1S)c1cccs1`, the EC50 was greater than 5.89 µM and the IC50 was greater than 5.89 µM.
With `COc1c2occc2cc2ccc(=O)oc12`, the EC50 is greater than 83.2 µM and the IC50 is greater than 83.2 µM.
Take `Cc1ccc2c(c1)C1(c3ccc(Cl)cc3)Oc3ccc(C)cc3C(c3ccc(Cl)cc3)(O2)O1`: the EC50 was greater than 75.9 µM and the half-inhibitory concentration (IC50) was greater than 75.9 µM.
For the compound `NNC(N)=Nc1cccc2ccccc12`, the EC50 is greater than 200 µM and the IC50 is greater than 200 µM.
As for `O=C1CC(NC(=O)C(F)(F)F)c2c(Br)sc(N3CCNCC3)c21` (stereo unspecified), the EC50 was greater than 200 µM and the IC50 amounted to 162 µM.
On to `C=CCOC(OCC=C)/C(Br)=C/C`, for which the outcome was inactive.
With `C[CH2][Sn]([CH2]C)([O]C(=O)c1ccccc1OC)[O][Sn]([CH2]C)([CH2]C)[O]C(=O)c1ccccc1OC`, the EC50 is greater than 38.9 µM and the IC50 was found to be 29.5 µM.
